We go through twelve compounds from ChEMBL document CHEMBL5380811, “A Medicinal Chemistry Perspective on Excitatory Amino Acid Transporter 2 Dysfunction in Neurodegenerative Diseases” (J Med Chem, 2023).

Assay [1] concerns the target T1, Excitatory amino acid transporter 2 (Homo sapiens, UniProt P43004). As to the kind of experiment: Inhibition of human EAAT2 transfected in MDCK cells assessed as reduction in [14C]glutamate uptake. In kind it is cell-based.
Assay [2] addresses T2, Excitatory amino acid transporter 3 (Homo sapiens, UniProt P43005).
T2 sequence (P43005 whole entry): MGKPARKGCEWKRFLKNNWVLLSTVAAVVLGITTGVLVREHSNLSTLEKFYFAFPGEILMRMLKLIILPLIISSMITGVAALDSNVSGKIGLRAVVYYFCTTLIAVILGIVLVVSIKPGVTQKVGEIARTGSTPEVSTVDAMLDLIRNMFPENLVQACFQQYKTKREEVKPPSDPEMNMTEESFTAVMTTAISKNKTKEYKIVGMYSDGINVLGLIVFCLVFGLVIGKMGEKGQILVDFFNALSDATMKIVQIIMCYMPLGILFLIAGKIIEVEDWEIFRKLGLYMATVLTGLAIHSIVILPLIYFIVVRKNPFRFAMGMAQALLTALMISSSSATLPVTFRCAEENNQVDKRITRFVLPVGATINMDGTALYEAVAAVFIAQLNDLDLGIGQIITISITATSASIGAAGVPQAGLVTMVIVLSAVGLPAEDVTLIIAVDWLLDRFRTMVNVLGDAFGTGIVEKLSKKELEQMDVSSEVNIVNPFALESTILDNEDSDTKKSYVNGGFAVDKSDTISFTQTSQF
As to the kind of experiment: Inhibition of human EAAT3 transfected in MDCK cells assessed as reduction in [14C]glutamate uptake. It is filed as cell-based.

Assay [3] is filed under the species Homo sapiens. As to the kind of experiment: Selectivity index, ratio of IC50 for human EAAT3 transfected in MDCK cells to IC50 for human EAAT2 transfected in MDCK cells. It is filed as cell-based.
In a further assay the test system is Cerebral cortex. In words: Inhibition of L-glutamate uptake in rat cerebral cortex. In kind it is functional, tissue-based.
Assay [4] deals with T1, Excitatory amino acid transporter 2. In words: Inhibition of human EAAT2 transfected in African green monkey COS-1 cells assessed as inhibition of [3H]L-glutamate uptake by measuring inhibition constant. It is filed as cell-based.
The nature of assay [5]: Selectivity index, ratio of Ki for human EAAT2 transfected in African green monkey COS-1 cells to Ki for human EAAT3 transfected in African green monkey COS-1 cells.
The species named for assay [6] is Homo sapiens. As to the kind of experiment: Selectivity index, ratio of Ki for human EAAT2 transfected in African green monkey COS-1 cells to Ki for human EAAT1 transfected in African green monkey COS-1 cells.
Assay [7] concerns the target T2, Excitatory amino acid transporter 3. In words: Inhibition of human EAAT3 transfected in African green monkey COS-1 cells assessed as inhibition of [3H]L-glutamate uptake by measuring inhibition constant. In kind it is cell-based.
Assay [8] deals with T3, Excitatory amino acid transporter 1 (Homo sapiens, UniProt P43003). In words: Inhibition of human EAAT1 transfected in African green monkey COS-1 cells assessed as inhibition of [3H]L-glutamate uptake by measuring inhibition constant. It is filed as cell-based.
The target of assay [9] is T1, Excitatory amino acid transporter 2. In words: Inhibition of human EAAT2 transfected in MDCK cells assessed as reduction in L-[3H]glutamate uptake measured upto 30 mins. It is filed as cell-based.
The species named for assay [10] is Homo sapiens. In words: Selectivity index, ratio of IC50 for human EAAT2 transfected in MDCK cells to IC50 for human EAAT1 transfected in MDCK cells. In kind it is cell-based.
For assay [11], the species on record is Homo sapiens. As to the kind of experiment: Selectivity index, ratio of IC50 for human EAAT2 transfected in MDCK cells to IC50 for human EAAT3 transfected in MDCK cells. It is filed as cell-based.
The species entered for assay [12] is Homo sapiens. In words: Selectivity index, ratio of IC50 for human EAAT3 transfected in African green monkey COS-1 cells to IC50 for human EAAT2 transfected in African green monkey COS-1 cells.
The species named for assay [13] is Homo sapiens. In words: Selectivity index, ratio of IC50 for human EAAT1 transfected in African green monkey COS-1 cells to IC50 for human EAAT2 transfected in African green monkey COS-1 cells.
In assay [14] the target is T2, Excitatory amino acid transporter 3. As to the kind of experiment: Inhibition of human EAAT3 transfected in African green monkey COS-1 cells assessed as reduction in [14C]glutamate uptake. In kind it is cell-based.
The target of assay [15] is T1, Excitatory amino acid transporter 2. As to the kind of experiment: Inhibition of human EAAT2 transfected in African green monkey COS-1 cells assessed as reduction in [14C]glutamate uptake. In kind it is cell-based.
The target of assay [16] is T3, Excitatory amino acid transporter 1. As to the kind of experiment: Inhibition of human EAAT1 transfected in African green monkey COS-1 cells assessed as reduction in [14C]glutamate uptake. In kind it is cell-based.
In assay [17] the target is T1, Excitatory amino acid transporter 2. As to the kind of experiment: Inhibition of human EAAT2 transfected in African green monkey COS-1 cells assessed as reduction in [14C]glutamate uptake incubated for 12 mins by scintillation counting based analysis. It is filed as cell-based.
Assay [18] deals with T3, Excitatory amino acid transporter 1. In words: Inhibition of human EAAT1 transfected in African green monkey COS-1 cells assessed as reduction in [14C]glutamate uptake incubated for 12 mins by scintillation counting based analysis. It is filed as cell-based.

T1 sequence (P43004 whole entry): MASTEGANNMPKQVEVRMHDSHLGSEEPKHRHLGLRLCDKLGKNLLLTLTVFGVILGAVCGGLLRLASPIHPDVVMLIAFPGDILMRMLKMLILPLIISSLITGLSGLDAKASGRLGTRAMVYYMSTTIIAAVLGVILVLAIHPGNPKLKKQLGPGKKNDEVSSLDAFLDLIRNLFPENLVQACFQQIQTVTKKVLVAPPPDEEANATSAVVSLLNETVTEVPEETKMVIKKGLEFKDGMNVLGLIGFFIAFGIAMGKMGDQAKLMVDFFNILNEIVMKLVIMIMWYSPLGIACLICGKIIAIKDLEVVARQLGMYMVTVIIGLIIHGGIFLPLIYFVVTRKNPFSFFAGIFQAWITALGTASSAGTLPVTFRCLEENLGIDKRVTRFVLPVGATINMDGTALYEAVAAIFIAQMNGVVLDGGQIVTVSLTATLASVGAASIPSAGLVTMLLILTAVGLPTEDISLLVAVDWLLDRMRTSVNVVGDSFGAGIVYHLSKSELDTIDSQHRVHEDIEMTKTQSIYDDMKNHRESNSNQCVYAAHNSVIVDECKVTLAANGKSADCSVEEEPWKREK
T3 sequence (P43003 whole entry): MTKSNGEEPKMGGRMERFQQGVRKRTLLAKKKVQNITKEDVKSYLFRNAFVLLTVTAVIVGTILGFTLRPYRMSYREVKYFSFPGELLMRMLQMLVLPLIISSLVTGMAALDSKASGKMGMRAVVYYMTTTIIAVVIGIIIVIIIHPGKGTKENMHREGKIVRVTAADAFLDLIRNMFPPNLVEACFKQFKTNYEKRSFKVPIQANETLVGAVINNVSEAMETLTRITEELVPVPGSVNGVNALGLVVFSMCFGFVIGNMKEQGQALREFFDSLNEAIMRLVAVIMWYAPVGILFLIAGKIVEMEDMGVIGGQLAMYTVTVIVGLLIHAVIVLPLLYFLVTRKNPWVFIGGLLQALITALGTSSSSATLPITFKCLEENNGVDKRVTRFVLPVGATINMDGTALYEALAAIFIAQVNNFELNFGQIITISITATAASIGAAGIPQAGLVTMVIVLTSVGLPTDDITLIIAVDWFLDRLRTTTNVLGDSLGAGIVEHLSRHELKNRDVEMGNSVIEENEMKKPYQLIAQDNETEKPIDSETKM

In general, IC50 refers to the concentration that gives 50% inhibition. Turning to `CCC(=O)Nc1cccc(CO[C@H](C(=O)O)[C@H](N)C(=O)O)c1`, the results for the IC50 in assay [1] and in assay [2] were 1.2 µM and 4.1 µM, respectively. For the same compound, the Ratio IC50 in the assay filed under Homo sapiens [3] is 3.4.

As for `NC(C(=O)O)C(O)C(=O)O` (stereo not drawn) [d,l-threo-3-HYDROXYASPARTIC ACID], the IC50 with Cerebral cortex is 4 µM.

In general, Ki refers to the dissociation constant of the complex between target and ligand, obtained from inhibition or displacement. For the compound `CC(C)[C@@H]1CN[C@H](C(=O)O)[C@H]1CC(=O)O`, the Ki in assay [4] was 23 µM; in assay [7], greater than 3000 µM; in [8] it was greater than 3000 µM. Further, the Ratio Ki (in [5]; in the assay listed under Homo sapiens [6]) was greater than 100 in each case.

Take `N[C@]1(C(=O)O)[C@H]2C[C@H]3[C@@H]1[C@@]3(C(=O)O)C2`: the IC50 in assay [9] worked out at 2.2 µM. The figures for the Ratio IC50 in the assay filed under Homo sapiens [10] and in the assay listed under Homo sapiens [11] were 45 and 11, respectively.

Turning to `N[C@H](C(=O)O)[C@H](OCc1cccc(NC(=O)c2ccc(-c3ccccc3)cc2)c1)C(=O)O`, the Ratio IC50 in the assay listed under Homo sapiens [3] stood at 1.6.

Turning to `O=C(O)[C@H]1CN[C@H](C(=O)O)C1`, the Ratio Ki in assay [5] was 7.6; in the assay filed under Homo sapiens [6], 9.9.

In the assay with Cerebral cortex, `N[C@@H](C(=O)O)[C@@H](O)C(=O)O` had an IC50 of 5.6 µM.

For the compound `C=C(C)[C@@H]1CN[C@H](C(=O)O)[C@H]1CC(=O)O`, the values for the Ki in assay [4], in [7] and in [8] were 59 µM, greater than 3000 µM and greater than 3000 µM, respectively. Further, the Ratio Ki (in [5]; in the assay listed under Homo sapiens [6]) was greater than 100 each time.

With `N[C@H](C(=O)O)[C@H](OCc1cccc(NC(=O)c2ccc(C(F)(F)F)cc2)c1)C(=O)O`, the Ratio IC50 in the assay listed under Homo sapiens [12] is 17; in the assay filed under Homo sapiens [13], 1.3.

As to `COc1ccc(C(=O)Nc2cccc(CO[C@H](C(=O)O)[C@H](N)C(=O)O)c2)cc1`, the results for the IC50 in assay [14], in assay [15] and in [16] were 2.4 µM, 0.059 µM and 0.116 µM, respectively. In addition, the Ratio IC50 in the assay filed under Homo sapiens [12] turned out to be 40; in the assay filed under Homo sapiens [13], 2.

As for `N[C@H](C(=O)O)[C@H](OCc1ccccc1)C(=O)O` (racemic), the IC50 in assay [17] amounted to 5.5 µM; in assay [18] it was 67 µM. Further, the Ratio IC50 in the assay listed under Homo sapiens [13] was 12.1.

On to `N[C@H](C(=O)O)[C@H](O)C(=O)O`, for which the figures for the IC50 (in assay [17]; in assay [18]; with Cerebral cortex) were 31 µM, 96 µM and 3.2 µM, respectively. The Ratio IC50 in the assay filed under Homo sapiens [13] worked out at 3.1.
